Laboratory results from ChEMBL document CHEMBL1149732, “New bioactive metabolites from a freshwater isolate of the fungus Kirschsteiniothelia sp” (1992).
In brackets after ≈: the same amount, converted by molar mass. Activity calls are given as the source filed them. The calls are words filed in the database; no cut-off is given here.

Experiments:
[1] = test system: Bacillus subtilis; assay: Antimicrobial activity against Bacillus subtilis at 5 ug/disk by disk assay; assay type: functional, organism-based
[2] = test system: Staphylococcus aureus; assay: Antimicrobial activity against Staphylococcus aureus at 1 ug/disk by disk assay; assay type: functional, organism-based
[3] = test system: A549; assay: Cytotoxicity against human A549 cells; assay type: functional; conditions: read-out: ED50 (the source's name)
[4] = test system: MCF7; assay: Cytotoxicity against human MCF7 cells; assay type: functional; conditions: read-out: ED50 (the source's name)
[5] = test system: Bacillus subtilis; assay: Antimicrobial activity against Bacillus subtilis at 1 ug/disk by disk assay; assay type: functional, organism-based
[6] = test system: HT-29; assay: Cytotoxicity against human HT-29 cells; assay type: functional; conditions: read-out: ED50 (the source's name)
[7] = test system: Staphylococcus aureus; assay: Antimicrobial activity against Staphylococcus aureus at 10 ug/disk by disk assay; assay type: functional, organism-based

With `Cc1cc(O)c(Cl)c(Oc2c(Cl)c(C)cc(O)c2Cl)c1` the Activity [1] was “Active”.

With `Cc1cc(O)c(Cl)c(Oc2c(Cl)c(C)cc(O)c2Cl)c1Cl` the Activity [2] was “Active”.

In the case of `COC1=CC(=O)c2c(cc(OC)c(C(C)C3=C(O)C(=O)c4cc(O)c(C(C)=O)c(O)c4C3=O)c2O)C1=O` (configuration not stated) [KIRSCHSTEININ], the EC50 [3] is reported as 3.1 µg/mL (≈ 6.1 µM), the EC50 [4] is reported as 5.2 µg/mL (≈ 10.2 µM) and the Activity [5] is reported as “Active”. The EC50 [6] was 2.7 µg/mL (≈ 5.31 µM) and the Activity [7] was “Active”.
